Experimental findings from patent US20230150974A1 (Foghorn Therapeutics Inc., priority 2020, published 2023) are described below.

Experiment [1] deals with T1, HiBiT-BRM (Homo sapiens, UniProt P51531).
T1 construct: expressed in transfected cells
Briefly: HiBiT-BRM cell-based degradation assay (Nano-Glo HiBiT Lytic Detection). Particulars: HeLa cells expressing HiBiT-BRM, 24 h; for DC50: read-out: BRM HiBit Degradation IC50. In a few lines: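 Luminescence from HiBiT–LgBiT complementation in lysates of a stable HiBiT-BRM HeLa line measured after 24 h compound exposure. Degradation expressed as percent relative to DMSO-treated cells and cells given 2 μM of a known BRM/BRG1 degrader.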
For orientation: The HiBiT peptide binds its large partner to form an active luciferase.

For experiment [2], the target named is T2, HiBit-BRG1 (Homo sapiens, UniProt P51532).
T2 construct: expressed in transfected cells
T2 sequence (P51532 whole entry): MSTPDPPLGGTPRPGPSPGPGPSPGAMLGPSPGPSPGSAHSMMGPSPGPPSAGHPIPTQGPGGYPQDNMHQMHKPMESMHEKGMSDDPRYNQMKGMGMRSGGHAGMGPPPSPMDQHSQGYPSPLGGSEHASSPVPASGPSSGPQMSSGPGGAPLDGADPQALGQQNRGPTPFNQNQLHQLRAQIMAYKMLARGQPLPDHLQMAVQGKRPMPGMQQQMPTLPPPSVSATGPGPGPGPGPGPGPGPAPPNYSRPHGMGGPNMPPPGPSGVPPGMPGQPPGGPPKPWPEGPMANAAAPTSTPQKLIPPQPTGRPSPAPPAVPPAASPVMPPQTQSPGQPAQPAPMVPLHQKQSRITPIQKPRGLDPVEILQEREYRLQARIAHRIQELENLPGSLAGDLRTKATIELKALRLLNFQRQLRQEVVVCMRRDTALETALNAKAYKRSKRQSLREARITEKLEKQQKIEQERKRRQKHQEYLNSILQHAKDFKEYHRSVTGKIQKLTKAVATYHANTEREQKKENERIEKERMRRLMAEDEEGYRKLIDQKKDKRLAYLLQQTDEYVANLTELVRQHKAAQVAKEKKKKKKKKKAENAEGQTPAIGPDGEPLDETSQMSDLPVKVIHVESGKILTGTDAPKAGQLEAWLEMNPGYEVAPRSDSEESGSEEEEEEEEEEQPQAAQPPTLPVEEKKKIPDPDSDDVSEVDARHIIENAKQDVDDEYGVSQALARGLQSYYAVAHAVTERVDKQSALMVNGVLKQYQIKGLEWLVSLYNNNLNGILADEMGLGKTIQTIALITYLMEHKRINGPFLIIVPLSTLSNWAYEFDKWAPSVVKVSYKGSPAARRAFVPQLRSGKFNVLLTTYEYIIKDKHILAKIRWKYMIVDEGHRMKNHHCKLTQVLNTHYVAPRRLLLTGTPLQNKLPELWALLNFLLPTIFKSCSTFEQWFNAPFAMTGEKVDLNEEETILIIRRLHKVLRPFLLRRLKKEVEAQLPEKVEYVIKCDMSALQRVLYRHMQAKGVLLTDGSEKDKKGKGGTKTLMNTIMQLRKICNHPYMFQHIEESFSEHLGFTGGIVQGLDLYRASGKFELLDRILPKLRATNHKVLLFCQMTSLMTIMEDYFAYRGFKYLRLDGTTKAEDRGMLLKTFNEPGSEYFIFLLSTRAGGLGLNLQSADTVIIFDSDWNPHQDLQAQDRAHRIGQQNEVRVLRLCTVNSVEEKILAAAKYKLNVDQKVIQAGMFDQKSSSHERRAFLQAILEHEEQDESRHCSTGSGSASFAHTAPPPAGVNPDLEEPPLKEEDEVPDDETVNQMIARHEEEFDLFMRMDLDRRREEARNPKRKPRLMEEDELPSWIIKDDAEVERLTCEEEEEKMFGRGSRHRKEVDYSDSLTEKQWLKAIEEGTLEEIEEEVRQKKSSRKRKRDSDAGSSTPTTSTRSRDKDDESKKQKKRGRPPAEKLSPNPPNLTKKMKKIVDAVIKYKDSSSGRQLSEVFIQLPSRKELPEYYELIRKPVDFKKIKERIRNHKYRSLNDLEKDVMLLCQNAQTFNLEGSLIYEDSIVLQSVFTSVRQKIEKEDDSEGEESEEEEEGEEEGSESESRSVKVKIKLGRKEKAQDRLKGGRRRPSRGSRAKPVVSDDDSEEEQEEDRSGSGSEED
Briefly: HiBit-BRG1 cell-based degradation assay (Nano-Glo HiBiT Lytic Detection). Particulars: HeLa cells expressing HiBit-BRG1 and LgBit, 24 h; for DC50: read-out: BRG1 HiBit Degradation IC50; for Dmax: read-out: BRG1 HiBit Degradation Maximum (%). The essentials:
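Luminescence from reconstituted NanoBiT luciferase after lytic detection served as read-out of remaining HiBit-BRG1 in stable HeLa cells, which also express LgBit. Cells were seeded at 5000 per well and incubated with compound for 24 h. DMSO and a 2 μM known degrader defined the control range.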

Structures are written as SMILES. Where a name gives a salt, the structure may show the parent alone.

T1 sequence (P51531 whole entry): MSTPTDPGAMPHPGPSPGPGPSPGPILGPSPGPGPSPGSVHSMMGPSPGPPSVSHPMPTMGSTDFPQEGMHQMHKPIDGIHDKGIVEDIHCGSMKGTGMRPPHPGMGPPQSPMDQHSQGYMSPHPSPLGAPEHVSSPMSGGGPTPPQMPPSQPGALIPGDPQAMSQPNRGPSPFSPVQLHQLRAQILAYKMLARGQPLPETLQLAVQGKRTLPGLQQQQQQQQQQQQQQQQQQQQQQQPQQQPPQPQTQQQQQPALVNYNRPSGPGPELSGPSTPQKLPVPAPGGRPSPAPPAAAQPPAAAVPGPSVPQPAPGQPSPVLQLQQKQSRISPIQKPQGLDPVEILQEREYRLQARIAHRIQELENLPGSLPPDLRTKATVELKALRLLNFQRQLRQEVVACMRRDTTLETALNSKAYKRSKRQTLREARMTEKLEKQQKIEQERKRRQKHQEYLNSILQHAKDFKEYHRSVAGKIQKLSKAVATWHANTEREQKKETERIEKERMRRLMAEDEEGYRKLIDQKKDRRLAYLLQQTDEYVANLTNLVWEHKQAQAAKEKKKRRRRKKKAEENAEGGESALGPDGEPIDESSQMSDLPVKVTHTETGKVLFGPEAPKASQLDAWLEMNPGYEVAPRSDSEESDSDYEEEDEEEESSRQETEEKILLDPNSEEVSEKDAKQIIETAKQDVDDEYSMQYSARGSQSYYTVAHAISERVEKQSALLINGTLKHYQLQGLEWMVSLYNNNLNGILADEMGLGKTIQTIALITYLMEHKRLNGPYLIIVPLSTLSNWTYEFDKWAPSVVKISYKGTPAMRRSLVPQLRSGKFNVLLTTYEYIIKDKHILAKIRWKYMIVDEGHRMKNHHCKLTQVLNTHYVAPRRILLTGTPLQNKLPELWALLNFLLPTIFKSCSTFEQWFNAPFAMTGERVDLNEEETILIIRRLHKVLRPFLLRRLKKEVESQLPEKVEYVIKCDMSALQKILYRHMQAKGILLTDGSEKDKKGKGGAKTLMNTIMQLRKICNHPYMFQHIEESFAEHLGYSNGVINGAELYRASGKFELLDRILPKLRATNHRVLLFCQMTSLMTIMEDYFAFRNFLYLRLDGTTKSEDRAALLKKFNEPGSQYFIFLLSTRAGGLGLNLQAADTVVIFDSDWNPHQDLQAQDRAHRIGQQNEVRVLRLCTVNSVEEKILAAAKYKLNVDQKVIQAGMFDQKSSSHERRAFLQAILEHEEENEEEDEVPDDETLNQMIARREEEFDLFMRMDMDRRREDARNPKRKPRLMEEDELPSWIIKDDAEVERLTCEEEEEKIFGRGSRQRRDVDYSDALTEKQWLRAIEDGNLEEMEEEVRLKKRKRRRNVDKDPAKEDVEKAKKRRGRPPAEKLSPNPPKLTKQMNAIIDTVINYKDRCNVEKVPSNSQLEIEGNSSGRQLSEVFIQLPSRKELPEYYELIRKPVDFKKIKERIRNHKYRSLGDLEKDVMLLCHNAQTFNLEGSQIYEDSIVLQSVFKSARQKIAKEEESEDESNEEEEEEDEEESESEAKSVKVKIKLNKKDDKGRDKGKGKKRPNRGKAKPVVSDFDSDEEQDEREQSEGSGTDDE

As to `Cc1ncsc1-c1ccc(CNC(=O)[C@@H]2C[C@@H](O)CN2C(=O)[C@@H](NC(=O)CCN2CCC3(CC2)CCN(C(=O)c2ccc(CCOc4cc(-c5ccccc5O)nnc4N)cc2)CC3)C(C)(C)C)cc1` [Compound 201, (2S,4R)-1-((S)-2-(3-(9-(4-(2-((3-amino-6-(2-hydroxyphenyl)pyridazin-4-yl)oxy)ethyl)benzoyl)-3,9-diazaspiro[5.5]undecan-3-yl)propanamido)-3,3-dimethylbutanoyl)-4-hydroxy-N-(4-(4-methylthiazol-5-yl)benzyl)pyrrolidine-2-carboxamide], in experiment [1], the “BRM HiBit Degradation Maximum (%)” value is “B (“B” indicates maximum degradation ≥50%)” and the DC50 is greater than 1000 nM. Besides, in experiment [2], the DC50 was greater than 1000 nM and the Dmax was less than 50%.

As for `Cc1ncsc1-c1ccc([C@H](C)NC(=O)[C@@H]2C[C@@H](O)CN2C(=O)[C@@H](c2cc(OCCN3CC(C4CN(C(=O)c5ccc(CCOc6cc(-c7ccccc7O)nnc6N)cc5)C4)C3)no2)C(C)C)cc1` [Compound 222, (2S,4R)-1-((R)-2-(3-(2-(1′-(4-(2-((3-amino-6-(2-hydroxyphenyl)pyridazin-4-yl)oxy)ethyl)benzoyl)-[3,3'-biazetidin]-1-yl)ethoxy)isoxazol-5-yl)-3-methylbutanoyl)-4-hydroxy-N-((S)-1-(4-(4-methylthiazol-5-yl)phenyl)ethyl)pyrrolidine-2-carboxamide], in experiment [1], the “BRM HiBit Degradation Maximum (%)” value is listed as “A (“A” indicates maximum degradation ≥75%)” and the DC50 was greater than 100 nM. In addition, in experiment [2], the DC50 was greater than 100 nM and the Dmax is greater than 75%.

Consider `Nc1nnc(-c2ccccc2O)cc1N1CCN(CCNC(=O)CCOCCOCCNc2cccc3c2C(=O)N(C2CCC(=O)NC2=O)C3=O)CC1` (stereo not shown) [Compound 93], for which, in experiment [1], the “BRM HiBit Degradation Maximum (%)” value is recorded as “C (“C” indicates maximum degradation <50%)” and the DC50 is greater than 1000 nM. Moreover, in experiment [2], the DC50 was greater than 1000 nM and the Dmax is less than 50%.

Consider `Cc1ncsc1-c1ccc([C@H](C)NC(=O)[C@@H]2C[C@@H](O)CN2C(=O)[C@@H](NC(=O)CCCCCCCCCNC(=O)c2ccc(CCOc3cc(-c4ccccc4O)nnc3N)cc2)C(C)(C)C)cc1` [Compound 171, (2S,4R)-1-((S)-2-(10-(4-(2-((3-amino-6-(2-hydroxyphenyl)pyridazin-4-yl)oxy)ethyl)benzamido)decanamido)-3,3-dimethylbutanoyl)-4-hydroxy-N-((S)-1-(4-(4-methylthiazol-5-yl)phenyl)ethyl)pyrrolidine-2-carboxamide], for which, in experiment [1], the “BRM HiBit Degradation Maximum (%)” value is “A (“A” indicates maximum degradation ≥75%)” and the DC50 is greater than 100 nM. In experiment [2], the DC50 is greater than 1000 nM and the Dmax was greater than 50%.

For the compound `Cc1ncsc1-c1ccc(CNC(=O)[C@@H]2C[C@@H](O)CN2C(=O)[C@@H](NC(=O)CCN2CCN(CCOc3cc(N4[C@@H]5CC[C@H]4CN(c4cc(-c6ccccc6O)nnc4N)C5)ccn3)CC2)C(C)(C)C)cc1` [Compound 232, (2S,4R)-1-((2S)-2-(3-(4-(2-((4-(3-(3-amino-6-(2-hydroxyphenyl)pyridazin-4-yl)-3,8-diazabicyclo[3.2.1]octan-8-yl)pyridin-2-yl)oxy)ethyl)piperazin-1-yl)propanamido)-3,3-dimethylbutanoyl)-4-hydroxy-N-(4-(4-methylthiazol-5-yl)benzyl)pyrrolidine-2-carboxamide], in experiment [1], the “BRM HiBit Degradation Maximum (%)” value is “A (“A” indicates maximum degradation ≥75%)” and the DC50 was greater than 100 nM. In addition, in experiment [2], the DC50 was greater than 1000 nM and the Dmax was less than 50%.

With `CN(CCCCCNc1cccc2c1C(=O)N(C1CCC(=O)NC1=O)C2=O)Cc1ccc(CCOc2cc(-c3ccccc3O)nnc2N)cc1` (stereo not shown) [Compound 156, 4-((5-((4-(2-((3-amino-6-(2-hydroxyphenyl)pyridazin-4-yl)oxy)ethyl)benzyl)(methyl)amino)pentyl)amino)-2-(2,6-dioxopiperidin-3-yl)isoindoline-1,3-dione formate], in experiment [1], the “BRM HiBit Degradation Maximum (%)” value is “B (“B” indicates maximum degradation ≥50%)” and the DC50 was greater than 10 nM. For the same compound, in experiment [2], the DC50 is less than 10 nM and the Dmax was greater than 50%.

On to `Cc1ncsc1-c1ccc([C@H](C)NC(=O)[C@@H]2C[C@@H](O)CN2C(=O)[C@@H](c2cc(OCCN3C[C@@H]4CN(C(=O)c5ccc(CCOc6cc(-c7ccccc7O)nnc6N)cc5)C[C@@H]4C3)no2)C(C)C)cc1` [Compound 190, (2S,4R)-1-((2R)-2-(3-(2-(5-(4-(2-((3-amino-6-(2-hydroxyphenyl)pyridazin-4-yl)oxy)ethyl)benzoyl)hexahydropyrrolo[3,4-c]pyrrol-2(1H)-yl)ethoxy)isoxazol-5-yl)-3-methylbutanoyl)-4-hydroxy-N-((S)-1-(4-(4-methylthiazol-5-yl)phenyl)ethyl)pyrrolidine-2-carboxamide], for which, in experiment [1], the “BRM HiBit Degradation Maximum (%)” value is reported as “A (“A” indicates maximum degradation ≥75%)” and the DC50 was greater than 10 nM. For the same compound, in experiment [2], the DC50 was greater than 100 nM and the Dmax is greater than 75%.

On to `Cc1ncsc1-c1ccc(CNC(=O)[C@@H]2C[C@@H](O)CN2C(=O)[C@@H](NC(=O)CCCCCCCCCCCCCCC(=O)NCc2ccc(CCOc3cc(-c4ccccc4O)nnc3N)cc2)C(C)(C)C)cc1` [Compound 40, N1-(4-(2-((3-amino-6-(2-hydroxyphenyl)pyridazin-4-yl)oxy)ethyl)benzyl)-N16-((S)-1-((2S,4R)-4-hydroxy-2-((4-(4-methylthiazol-5-yl)benzyl)carbamoyl)pyrrolidin-1-yl)-3,3-dimethyl-1-oxobutan-2-yl)hexadecanediamide], for which, in experiment [1], the “BRM HiBit Degradation Maximum (%)” value is “A (“A” indicates maximum degradation ≥75%)” and the DC50 is greater than 100 nM. In experiment [2], the DC50 was greater than 1000 nM and the Dmax is less than 50%.

For `Cc1ncsc1-c1ccc(CNC(=O)[C@@H]2C[C@@H](O)CN2C(=O)[C@@H](NC(=O)CCN2CCN(CCC(=O)NCc3ccc(CCOc4cc(-c5ccccc5O)nnc4N)cc3)CC2)C(C)(C)C)cc1` [Compound 189, (2S,4R)-1-[(2S)-2-(3-[4-[2-([[4-(2-[[3-amino-6-(2-hydroxyphenyl)pyridazin-4-yl]oxy]ethyl)phenyl]methyl]carbamoyl)ethyl]piperazin-1-yl]propanamido)-3,3-dimethylbutanoyl]-4-hydroxy-N-[[4-(4-methyl-1,3-thiazol-5-yl)phenyl]methyl]pyrrolidine-2-carboxamide], in experiment [1], the “BRM HiBit Degradation Maximum (%)” value is listed as “C (“C” indicates maximum degradation <50%)” and the DC50 was greater than 1000 nM. In addition, in experiment [2], the DC50 is greater than 1000 nM and the Dmax was less than 50%.

Consider `CN(CCNC(=O)COc1cccc2c1C(=O)N(C1CCC(=O)NC1=O)C2=O)CCNC(=O)c1ccc(CCOc2cc(-c3ccccc3O)nnc2N)cc1` (stereo not shown) [Compound 58, N-[2-[(2-[[4-(2-[[3-amino-6-(2-hydroxyphenyl)pyridazin-4-yl]oxy]ethyl)phenyl]formamido]ethyl)(methyl)amino]ethyl]-2-[[2-(2,6-dioxopiperidin-3-yl)-1,3-dioxoisoindol-4-yl]oxy]acetamide], for which, in experiment [1], the “BRM HiBit Degradation Maximum (%)” value is “C (“C” indicates maximum degradation <50%)” and the DC50 was greater than 1000 nM. Moreover, in experiment [2], the DC50 is greater than 1000 nM and the Dmax was less than 50%.

With `Cc1ncsc1-c1ccc([C@H](C)NC(=O)[C@@H]2C[C@@H](O)CN2C(=O)[C@@H](c2cc(OCCN3CCC(C4CN(C(=O)c5ccc(CCOc6cc(-c7ccccc7O)nnc6N)cc5)C4)CC3)no2)C(C)C)cc1` [Compound 207, (2S,4R)-1-[(2R)-2-[3-[2-(4-[1-[4-(2-[[3-amino-6-(2-hydroxyphenyl)pyridazin-4-yl]oxy]ethyl)benzoyl]azetidin-3-yl]piperidin-1-yl)ethoxy]-1,2-oxazol-5-yl]-3-methylbutanoyl]-4-hydroxy-N-[(1S)-1-[4-(4-methyl-1,3-thiazol-5-yl)phenyl]ethyl]pyrrolidine-2-carboxamide], in experiment [1], the “BRM HiBit Degradation Maximum (%)” value is given as “A (“A” indicates maximum degradation ≥75%)” and the DC50 is greater than 10 nM. Besides, in experiment [2], the DC50 is greater than 1000 nM and the Dmax is less than 50%.

For `CN(CCc1ccc(CNC(=O)CCCCOc2cccc3c2C(=O)N(C2CCC(=O)NC2=O)C3=O)cc1)c1cc(-c2ccccc2O)nnc1N` (stereo not shown) [Compound 146, N-(4-(2-((3-amino-6-(2-hydroxyphenyl)pyridazin-4-yl)(methyl)amino)ethyl)benzyl)-5-((2-(2,6-dioxopiperidin-3-yl)-1,3-dioxoisoindolin-4-yl)oxy)pentanamide], in experiment [1], the “BRM HiBit Degradation Maximum (%)” value is recorded as “C (“C” indicates maximum degradation <50%)” and the DC50 was greater than 1000 nM. Besides, in experiment [2], the DC50 was greater than 1000 nM and the Dmax was less than 50%.

For the compound `Nc1nnc(-c2ccccc2O)cc1N1CCN(CC(=O)NC2CCN(CCOc3ccc4c(c3)C(=O)N(C3CCC(=O)NC3=O)C4=O)CC2)CC1` (stereo not shown) [Compound 82, 2-[4-[3-amino-6-(2-hydroxyphenyl)pyridazin-4-yl]piperazin-1-yl]-N-[1-(2-[[2-(2,6-dioxopiperidin-3-yl)-1,3-dioxoisoindol-5-yl]oxy]ethyl)piperidin-4-yl]acetamide], in experiment [1], the “BRM HiBit Degradation Maximum (%)” value is “C (“C” indicates maximum degradation <50%)” and the DC50 was greater than 1000 nM. Besides, in experiment [2], the DC50 was greater than 1000 nM and the Dmax was less than 50%.
